In ChEMBL document CHEMBL2203042, “Novel bivalent ligands for D2/D3 dopamine receptors: Significant co-operative gain in D2 affinity and potency” (ACS Med Chem Lett, 2012):

How the values were obtained:
D(2) dopamine receptor = D(2) dopamine receptor (Rattus norvegicus, UniProt P61169); assay: Displacement of [3H]spiperone from rat cloned dopamine D2L receptor expressed in HEK-293 cells by competition binding assay; format: cell-based, HEK293
Rattus norvegicus = species on record: Rattus norvegicus; assay: Selectivity ratio of Ki for rat cloned dopamine D2L receptor to Ki for rat cloned dopamine D3 receptor
D(3) dopamine receptor = D(3) dopamine receptor (Rattus norvegicus, UniProt P19020); assay: Displacement of [3H]spiperone from rat cloned dopamine D3 receptor expressed in HEK-293 cells by competition binding assay; format: cell-based, HEK293
Sequence of D(3) dopamine receptor (P19020 whole entry): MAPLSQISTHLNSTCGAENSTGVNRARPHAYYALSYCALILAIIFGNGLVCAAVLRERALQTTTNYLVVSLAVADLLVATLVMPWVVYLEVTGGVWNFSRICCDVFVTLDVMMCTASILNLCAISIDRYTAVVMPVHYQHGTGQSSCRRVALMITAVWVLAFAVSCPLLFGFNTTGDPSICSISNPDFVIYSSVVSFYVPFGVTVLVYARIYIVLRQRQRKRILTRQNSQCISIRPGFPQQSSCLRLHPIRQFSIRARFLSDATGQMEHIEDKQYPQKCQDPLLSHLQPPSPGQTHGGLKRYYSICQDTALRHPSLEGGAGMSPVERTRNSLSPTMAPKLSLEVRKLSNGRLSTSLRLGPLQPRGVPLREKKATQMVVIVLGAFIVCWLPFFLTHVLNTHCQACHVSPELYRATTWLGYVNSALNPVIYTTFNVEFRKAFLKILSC

Sequence of D(2) dopamine receptor (P61169 whole entry): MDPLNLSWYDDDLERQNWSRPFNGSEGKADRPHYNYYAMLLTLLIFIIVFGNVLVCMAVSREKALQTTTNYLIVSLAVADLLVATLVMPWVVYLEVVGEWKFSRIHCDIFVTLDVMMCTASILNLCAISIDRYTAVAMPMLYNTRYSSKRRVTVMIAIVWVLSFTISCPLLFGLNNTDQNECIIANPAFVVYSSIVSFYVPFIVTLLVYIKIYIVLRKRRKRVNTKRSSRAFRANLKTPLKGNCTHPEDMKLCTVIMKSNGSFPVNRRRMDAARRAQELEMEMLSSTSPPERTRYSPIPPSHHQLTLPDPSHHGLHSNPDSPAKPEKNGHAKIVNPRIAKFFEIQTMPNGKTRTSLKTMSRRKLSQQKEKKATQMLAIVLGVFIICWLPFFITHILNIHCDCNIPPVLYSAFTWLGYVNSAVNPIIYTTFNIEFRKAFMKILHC

SMILES	Ki (D(2) dopamine receptor) [nM]	Ratio Ki (Rattus norvegicus)	Ki (D(3) dopamine receptor) [nM]
CCCN(CCCCCCCCCCCCN(CCC)[C@H]1CCc2c(O)cccc2C1)[C@H]1CCc2c(O)cccc2C1	11	1	10
CCCN(CCCCCCCCCc1ccccc1)[C@H]1CCc2c(O)cccc2C1	140	6.1	23
CCCN(CCCCCCCCCCCCCCN(CCC)[C@H]1CCc2c(O)cccc2C1)[C@H]1CCc2c(O)cccc2C1	55	1.7	31
CCCN(CCCCCCN(CCC)[C@H]1CCc2c(O)cccc2C1)[C@H]1CCc2c(O)cccc2C1	5.9	2.7	2.2
CCCN(CCN(CCC)[C@H]1CCc2c(O)cccc2C1)[C@H]1CCc2c(O)cccc2C1	16	14	1.1
CCCN(CCCCCCCN(CCC)[C@H]1CCc2c(O)cccc2C1)[C@H]1CCc2c(O)cccc2C1	3.9	3.6	1.1
CCCN(CCCCCN(CCC)[C@H]1CCc2c(O)cccc2C1)[C@H]1CCc2c(O)cccc2C1	75	21	3.6
CCCN(CCCCN(CCC)[C@H]1CCc2c(O)cccc2C1)[C@H]1CCc2c(O)cccc2C1	70	17	4
CCCCCCCCCN(CCC)[C@H]1CCc2c(O)cccc2C1	69	9.4	7.3
